# Tested on: AVEFA, LOLMU, ALOMY, SETVI
# Experiment: Assay 3—Glasshouse assay for pinoxaden antagonism (grass species)
# Conditions: used with Axial (pinoxaden) + Adigor adjuvant
# Protocol: A suitable glasshouse assay/test, to determine whether or not the “first herbicide”, when in a salt-free form and when not contained within polymeric microparticles, antagonises the herbicidal activity of pinoxaden, is as follows.
# The troughs are watered appropriately and are not supplied with additional nutrients throughout the course of the test. […] The pinoxaden is typically used in a commercial formulation applied with recommended tank-mix adjuvants.
# Crop injury (e.g. to wheat) is recorded at both 7 and 14-16 days after application; weed efficacy is only recorded at 14-16 days after application. A visual, 0-100% assessment scale is used, where 0%=no visible effects and 100%=complete plant destruction.
# For example, dicamba can be applied at ca. 240 g/ha (or alternatively at from 100 to 140, e.g. ca. 120, g/ha), measured as the free acid; MCPA and/or 2,4-D can be applied at ca. 500 g/ha, measured as the free acid.
# Alternatively, application rates may be identified from journal, book and/or patent publications for the specific active ingredient under test.
# Antagonism of pinoxaden may then be determined by the application of Colby's formula:
# (Observed 1+Observed 2)−((Observed 1×Observed 2)/100),
# Where observed values are smaller than the calculated expected value, antagonism is deemed to have occurred.
row,SMILES,antagonism of pinoxaden grass-herbicidal activity (in words)
1,"O=C(O)COc1ccc(Cl)cc1Cl [2,4-D acid, (2,4-dichlorophenoxy)acetic acid]","some reductions in pinoxaden herbicidal activity on the grassy weed species AVEFA, ALOMY, SETVI and LOLMU"
2,"Cc1cc(Cl)ccc1OCC(=O)O [MCPA acid, (4-chloro-2-methylphenoxy)acetic acid]","some reductions in pinoxaden herbicidal activity on the grassy weed species AVEFA, ALOMY and LOLMU"
3,"COc1c(Cl)ccc(Cl)c1C(=O)O [dicamba acid, 3,6-dichloro-2-methoxybenzoic acid]","some reductions in pinoxaden herbicidal activity on the grassy weed species AVEFA, ALOMY and LOLMU"
